Measurements published in patent US20150010630A1, “FUNCTIONALIZATION OF BIOMATERIALS TO CONTROL REGENERATION AND INFLAMMATION RESPONSES” (TRUSTEES OF TUFTS COLLEGE, priority 2011, published 2015).
Where two headings read alike, the source gives them in different places.

Experiments:
THP1 macrophages [1] = experiment: RT-PCR gene expression (TNF-α, TGF-β, IL-10) of THP1 macrophages on SP1 particles
THP1 macrophages [2] = tested on: THP1 macrophages
Description: The number of cells was determined, e.g., by counting the cells at the beginning of the experiment and by using the alamar blue method after the seeding. On the day the cells were seeded at the appropriate number, phorbo112-myristate 13-acetate (PMA) was added to the media at a final concentration of about 100 ng/ml to differentiate the THP-1 monocytes into THP-1 macrophages.

THP1 macrophages [3] = experiment: TNF-α release (ELISA) from THP1 macrophages seeded on SP1 particles, LPS plus drug; assay type: cell-based, human
Description: To assess inflammatory response, a large screen of cytokines and chemokines expressed and produced by THP1 differentiated cells and primary Mφs and DCs were analyzed. Their production and release into the media environment were evaluated using an ELISA sandwich technique. […] TNF-α cytokine release was selected in the experiments described herein because it is the common proinflammatory cytokine produced by Mφs as well as DCs. However, other inflammation-associated cytokines can also be measured.

primary macrophages [4] = experiment: TNF-α release (ELISA) from primary macrophages on SP0.5 particles; assay type: cell-based, human; details: dexamethasone ~25 to ~1.5625 μg/ml both time points; simvastatin about 250 to about 31.25 μg/ml at 1 day; nicotine either time point
primary macrophages [5] = experiment: RT-PCR gene expression (TNF-α, IL-1RA, IL-10) of primary macrophages on SP0.5 particles; assay type: cell-based, human; details: 1 day
primary dendritic cells [6] = experiment: TNF-α release (ELISA) from primary dendritic cells on SP0.5 particles; assay type: cell-based, human; details: various concentrations, both time points
primary dendritic cells [7] = experiment: RT-PCR gene expression (IL-1β, IL-1RA, IL-8) of primary dendritic cells on SP0.5 particles; assay type: cell-based, human
THP-1 monocytes = experiment: M1/M2 macrophage marker expression in THP-1 monocytes cultured on silk films functionalized with macrophage-skewing agent; assay type: cell-based, human
[8] = Release of INF-γ from INF-γ embedded silk films (ELISA); assay type: physicochemical
Description: An ELISA was run to show the release rate of INF-γ from the silk films. The films were made from a silk fibroin solution of about 10 μg/m and 0.2 ml used per film (for a total loading of about 2 μg INF-γ). Within one hour a large amount of INF-γ is released but as a percentage of the total loading it is small and by 4 days more INF-γ is released showing that there is a continued or constant release of INF-γ. While the levels of INF-γ release are low, they are physiologically relevant.
FIG. 23 is a line graph showing the release rate of INF-γ from the silk films. The silk films were made from a silk solution at a concentration of about 10 μg/m and about 0.2 ml of the silk solution was used per film (with a loading of about 2 μg INF-γ). As shown in the table of FIG. 23, within one hour an amount of about […] INF-γ was released, which is about 0.02% of the total loading. […] While the levels of INF-γ release appeared to be low, the level is physiologically relevant.

[9] = about 10 μg/ml INF-γ in silk films

C[C@@H]1C[C@H]2[C@@H]3CCC4=CC(=O)C=C[C@]4(C)[C@@]3(F)[C@@H](O)C[C@]2(C)[C@@]1(O)C(=O)CO [dexamethasone]
IL-10 fold change in expression (relative to positive control) (THP1 macrophages [1]; 1 day, dexamethasone about 12.5 μg/ml): above 1 fold

CN1CCCC1c1cccnc1 (centres unmarked) [nicotine]
cytotoxicity (in words) (THP1 macrophages [2]; dexamethasone ~100 and ~50 μg/ml, simvastatin 250 μg/ml, nicotine 3 mg/ml, both time points): cytotoxic | cytotoxicity (in words) (THP1 macrophages [2]; nicotine ~1.5 mg/ml, 3 days): cytotoxic | effect on cell number versus positive and negative controls (THP1 macrophages [2]; non-cytotoxic nicotine concentrations): proliferative effect | TNF-α release compared to positive control (LPS), high concentrations (THP1 macrophages [3]; dexamethasone ~100 and ~50 μg/ml, simvastatin higher concentration, nicotine above 750 μg/ml, both time points): more TNF-α was released than the positive control | TNF-α release compared to LPS control (primary macrophages [4]): no significant decrease | TNF-α gene expression (primary macrophages [5]; dexamethasone, simvastatin 125 to 31.25 μg/ml, nicotine 187.5 and 93.75 μg/ml): downregulated | IL-10 gene expression (primary macrophages [5]; dexamethasone, simvastatin, nicotine about 750 to about 275 μg/ml): high | IL-1RA gene expression (primary macrophages [5]; simvastatin, nicotine about 750 to about 275 μg/ml): high | TNF-α release compared to LPS control (primary dendritic cells [6]): the same as observed with macrophages | gene expression profile (anti-inflammatory or not) (primary dendritic cells [7]; 1 day, dexamethasone various concentrations, simvastatin ~62.5 μg/ml, nicotine about 46.87 to about 187.5 μg/ml): no anti-inflammatory profile | gene expression profile (anti-inflammatory or not) (primary dendritic cells [7]; 5 days): no anti-inflammatory profile | IL-10 gene expression (THP1 macrophages [1]; 1 day, dexamethasone vs media control, simvastatin vs positive control, nicotine vs controls): unregulated | TGF-β gene expression (THP1 macrophages [1]; 3 days, dexamethasone all concentrations except ~25 μg/ml, nicotine compared to same concentrations at 1 day): downregulated | TNF-α gene expression (THP1 macrophages [1]; 3 days, dexamethasone vs LPS control, nicotine vs negative control): higher than the negative control | IL-10 gene expression (THP1 macrophages [1]; 3 days, nicotine compared to same concentrations at 1 day): downregulated

CCC(C)(C)C(=O)O[C@H]1C[C@@H](C)C=C2C=C[C@H](C)[C@H](CC[C@@H]3C[C@@H](O)CC(=O)O3)[C@H]21 [simvastatin]
TNF-α release (THP1 macrophages [3]; simvastatin ~31.5 μg/ml and less): about 0.07 pg/ml

INF-γ: interferon-gamma loaded or embedded in silk films
CCL-18 (M2 macrophage marker) (THP-1 monocytes; [9]): upregulated | CD206 (M2 macrophage marker) relative to control (THP-1 monocytes; [9]): strongly downregulated | markers of M1 macrophage (CCL3 and CCR7) (THP-1 monocytes; about 10 μg/ml INF-γ loaded or embedded in silk films): up-regulated

B1: INF-γ: interferon-gamma loaded or embedded in silk films (protein, UniProt P01579 24-161, looked up)
Interferon gamma: QDPYVKEAENLKKYFNAGHSDVADNGTLFLGILKNWKEESDRKIMQSQIVSFYFKLFKNFKDDQSIQKSVETIKEDMNVKFFNSNKKKRDDFEKLTNYSVTDLNVQRKAIHELIQVMAELSPAAKTGKRKRSQMLFRG
continued INF-γ release ([8]; by day 4): More INF-γ was released | INF-γ released as share of the total loading ([8]; within one hour): about 0.02% | amount of INF-γ released from silk film ([8]; within one hour, loading about 2 μg INF-γ per film): about 400 μg/ml
